Assay results from patent US20070249501A1 (priority 2004, published 2007).

Columns and labels:
[1] = system: microbial populations in soil; type: cell-based
[2] = system: root-knot nematode Meloidogyne javanica; details: in vivo
[3] = system: Fusarium oxysporum f. sp. radicis-lycopersici (FORL); type: cell-based
[4] = system: Sclerotium rolfsii; type: cell-based
[5] = system: tomato (cv. 870) seedlings; details: in vivo

Molecule | reduction of microbial populations in soil [1] | further results
OCC(CO)(CBr)CBr [DBNPG, dibromoneopentyl glycol] | none of the tested industrial biocides was capable of significantly reducing microbial populations in soil | 
OCC(CBr)(CBr)CBr [TBNPA, tribromoneopentyl alcohol] | none of the tested industrial biocides was capable of significantly reducing microbial populations in soil | 
ClC=CCCl [1,3-dichloropropene] |  | galling index of tomato plant roots [2]: zero
BrC(Br)Br [BF, bromoform] | none of the tested industrial biocides was capable of significantly reducing microbial populations in soil | 
O=[N+]([O-])CBr [monobromonitromethane, bromonitromethane] |  | control of FORL in soil (percent survival, FIG. 6) [3]: effective in controlling soil-borne fungi; control of S. rolfosii in soil (percent survival, FIG. 6) [4]: effective in controlling soil-borne fungi
O=S([O-])S(=O)(=O)[O-].[K+].[K+] [PMS, potassium metabisulfite] | none of the tested industrial biocides was capable of significantly reducing microbial populations in soil | root system development in treated soil [5]: substantially stunted root system
tetrabromoethane [TBE] | none of the tested industrial biocides was capable of significantly reducing microbial populations in soil | 
ClCCBr [BCE, ethylene bromochloride] | none of the tested industrial biocides was capable of significantly reducing microbial populations in soil | root system development in treated soil [5]: substantially stunted root system
tetramethylammonium bromide [TMBr] | none of the tested industrial biocides was capable of significantly reducing microbial populations in soil | 
COc1ccc(C=CC(=O)O)cc1 [MCA, methoxy cinnamic acid] | none of the tested industrial biocides was capable of significantly reducing microbial populations in soil | 
C[N+](=O)[O-] [nitromethane] |  | control of FORL in soil (percent survival, FIG. 6) [3]: no effect in controlling pests; control of S. rolfosii in soil (percent survival, FIG. 6) [4]: no effect in controlling pests
CN1CSC(=S)N(C)C1 [Dazomet, dazomet] |  | effect on population densities of FORL, Verticillium dahliae, Macrophomina phaseolina and Streptomyces spp. in soil (FIG. 3) [1]: the effect of bromopicrin was similar to the effect of the commercial fumigant Basamid
